Measurements as given in PMC8151276, “An Integrated Approach toward NanoBRET Tracers for Analysis of GPCR Ligand Engagement” (Molecules, 2021).

What was measured:
Type in all cases: binding
[1] = molecular target: T1, HCRTR2 (Homo sapiens, UniProt O43614); experiment: NanoBRET screen HiBiT-HCRTR2 in HEK293
T1 construct: purchased Promega (in-house HiBiT-GPCR construct library, NanoBRET)
T1 sequence (O43614 1-444): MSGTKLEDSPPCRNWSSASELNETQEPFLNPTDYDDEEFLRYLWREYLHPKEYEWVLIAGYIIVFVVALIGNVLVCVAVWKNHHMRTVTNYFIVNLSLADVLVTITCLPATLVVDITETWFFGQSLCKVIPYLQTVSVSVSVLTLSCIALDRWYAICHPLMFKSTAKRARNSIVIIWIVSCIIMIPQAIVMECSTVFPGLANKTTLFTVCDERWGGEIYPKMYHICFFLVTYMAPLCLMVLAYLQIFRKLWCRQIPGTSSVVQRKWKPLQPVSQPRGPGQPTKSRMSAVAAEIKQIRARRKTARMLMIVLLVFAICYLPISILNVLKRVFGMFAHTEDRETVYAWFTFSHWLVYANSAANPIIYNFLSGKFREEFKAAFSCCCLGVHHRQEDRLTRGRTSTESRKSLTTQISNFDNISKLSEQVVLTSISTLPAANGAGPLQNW
Protocol: (§1) Each tracer candidate was screened across the entire library of HiBiT-GPCR constructs using NanoBRET as the detection modality. As depicted in Figure 4A, the specificity of interactions was evaluated through decrease in BRET due to competitive displacement of a bound tracer by excess parental compound. Each tracer was analyzed for binding to each HiBiT-GPCR fusion in the absence and in the presence of competing parental compound. Briefly, HEK293 cells were transfected with HiBiT-GPCR constructs diluted into promoterless DNA to reduce expression and maximize translocation to the cell surface. Each tracer candidate was then screened at concentrations of 1 μM and 0.1 μM across cells expressing these fusions. Cells were treated for 1.5 h with tracer either alone or in the presence of 20 μM competing parental compound (i.e., control). BRET was measured upon addition of purified LgBiT and subsequent complementation with HiBiT genetically fused to a GPCR. The specificity of interactions was assessed through a decrease in BRET signal due to competitive displacement of the bound tracer. To further gauge the robustness of these interactions, the fold response over the control (i.e., BRETtracer/BRETcontrol) was calculated. We chose a 1.5-fold response, which translates to ≥7-fold signal over noise as the minimal threshold required to score an interaction as positive. […]. Below we highlight the screening results obtained for our exemplary fluorescent tracers based on Clozapine, Amitriptyline and AZD1283.
(§2) HiBiT-GPCR DNA constructs were diluted in 10 mM Tris pH 8 to a final concentration of 0.01 μg/μL, arrayed in 96-well plates and stored at −20 °C. For transfection, HEK293 cells were suspended in Opti-MEM (without phenol red) supplemented with 2% fetal bovine serum (Seradigm) and 100 units/mL penicillin–streptomycin (Gibco) at a final concentration of 220,000 cells/mL and dispensed into white 96-well plates at 90 μL/well. Subsequent transfections and screens were carried using an Agilent Bravo Automated Liquid Handling Platform. First, the 96-well HiBiT DNA arrays were diluted 25-fold in Opti-MEM (without serum or phenol red) to a final concentration of 0.0004 μg/μL and 20 μL of the diluted DNAs were transferred into new 96-well plates. Next, promoterless carrier DNA (1 μg/μL) was diluted 25-fold (0.04 μg/μL) and then dispensed into the diluted arrays at 20 μL/well. Following brief mixing, Viafect transfection reagent (Promega) diluted 16-fold into Opti-MEM was dispensed into the plates at 40 μL/well. After mixing by pipetting, plates were incubated for 10 min on the pipetting station deck. The DNA-transfection reagent complexes were then added to plates containing cells. To facilitate the screen, 10 μL of DNA-transfection reagent complexes were added in duplicates to the top 4 and bottom 4 rows, resulting in two identical 48-well arrays per plate. Plates with transfected cells were incubated for 18–20 h at 37 °C/5% CO2. A screen of each tracer across the entire library using two different concentrations requires duplicate plates of transfected cells. Depending on the number of tracers being screened, transfections can be scaled up using the same ratios. The next day, for each tracer, four 20× screening solutions in tracer dilution buffer (Promega) were prepared: two duplicates at final concentration of 20 μM and two duplicates at a final concentration of 2 μM. A competing unmodified compound was added to one of each duplicate at a final concentration of 400 μM. The four resulting solutions were diluted 4-fold in Opti-MEM without serum or phenol red to generate 5× solutions (5 µM and 0.5 µM tracer +/− 100 μM competing compound). To screen the library, a BioTek MultiFlo FX liquid dispenser was used to dispense 22.5 µL of tracer solution to the top 4 rows and 22.5 µL tracer + competing compound solution to the 4 bottom rows. Plates were briefly mixed on an orbital shaker and incubated for 1.5 h at room temperature. […]

[2] = molecular target: T2, HTR5A (Homo sapiens, UniProt P47898); experiment: NanoBRET screen HiBiT-HTR5A in HEK293
T2 construct: purchased Promega (in-house HiBiT-GPCR construct library, NanoBRET)
T2 sequence (P47898 whole entry): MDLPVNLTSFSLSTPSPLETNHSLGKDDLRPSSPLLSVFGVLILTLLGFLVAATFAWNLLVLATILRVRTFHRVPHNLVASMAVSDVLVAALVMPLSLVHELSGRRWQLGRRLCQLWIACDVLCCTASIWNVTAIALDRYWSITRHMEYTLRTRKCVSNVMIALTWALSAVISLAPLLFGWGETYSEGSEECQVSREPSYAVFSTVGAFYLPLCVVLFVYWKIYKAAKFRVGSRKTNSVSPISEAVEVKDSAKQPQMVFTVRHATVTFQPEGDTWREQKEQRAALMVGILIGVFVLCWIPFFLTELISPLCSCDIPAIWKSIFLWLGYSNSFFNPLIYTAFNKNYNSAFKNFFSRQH
Protocol: as §1, §2

[3] = molecular target: T3, P2RY2 (Homo sapiens, UniProt P41231); experiment: NanoBRET screen HiBiT-P2RY2 in HEK293
T3 construct: purchased Promega (in-house HiBiT-GPCR construct library, NanoBRET)
T3 sequence (P41231 whole entry): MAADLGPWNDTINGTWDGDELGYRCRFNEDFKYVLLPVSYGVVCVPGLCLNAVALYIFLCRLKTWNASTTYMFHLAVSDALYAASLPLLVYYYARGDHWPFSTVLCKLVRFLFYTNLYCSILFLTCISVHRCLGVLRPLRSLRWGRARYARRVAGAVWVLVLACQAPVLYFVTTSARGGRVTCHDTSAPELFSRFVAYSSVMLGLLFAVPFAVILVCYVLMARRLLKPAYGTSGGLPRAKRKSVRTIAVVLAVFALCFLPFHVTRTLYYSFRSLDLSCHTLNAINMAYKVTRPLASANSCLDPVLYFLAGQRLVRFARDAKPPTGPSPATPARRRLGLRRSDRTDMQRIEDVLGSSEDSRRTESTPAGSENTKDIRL
Protocol: as §1, §2

[4] = molecular target: T4, F2RL1 (Homo sapiens, UniProt P55085); experiment: NanoBRET screen HiBiT-F2RL1 in HEK293
T4 construct: purchased Promega (in-house HiBiT-GPCR construct library, NanoBRET)
T4 sequence (P55085 26-397): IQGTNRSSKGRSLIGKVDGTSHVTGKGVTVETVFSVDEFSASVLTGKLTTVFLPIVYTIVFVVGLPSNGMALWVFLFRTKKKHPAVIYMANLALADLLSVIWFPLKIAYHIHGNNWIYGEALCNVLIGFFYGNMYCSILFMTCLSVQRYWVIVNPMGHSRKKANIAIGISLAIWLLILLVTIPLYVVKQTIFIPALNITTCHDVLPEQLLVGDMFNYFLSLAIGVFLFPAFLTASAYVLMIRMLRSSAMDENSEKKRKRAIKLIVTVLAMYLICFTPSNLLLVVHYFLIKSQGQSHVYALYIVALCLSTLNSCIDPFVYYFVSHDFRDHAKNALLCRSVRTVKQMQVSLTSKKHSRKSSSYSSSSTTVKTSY
Protocol: as §1, §2

[5] = molecular target: T5, CCR1 (Homo sapiens, UniProt P32246); experiment: NanoBRET screen HiBiT-CCR1 in HEK293
T5 construct: purchased Promega (in-house HiBiT-GPCR construct library, NanoBRET)
T5 sequence (P32246 1-355): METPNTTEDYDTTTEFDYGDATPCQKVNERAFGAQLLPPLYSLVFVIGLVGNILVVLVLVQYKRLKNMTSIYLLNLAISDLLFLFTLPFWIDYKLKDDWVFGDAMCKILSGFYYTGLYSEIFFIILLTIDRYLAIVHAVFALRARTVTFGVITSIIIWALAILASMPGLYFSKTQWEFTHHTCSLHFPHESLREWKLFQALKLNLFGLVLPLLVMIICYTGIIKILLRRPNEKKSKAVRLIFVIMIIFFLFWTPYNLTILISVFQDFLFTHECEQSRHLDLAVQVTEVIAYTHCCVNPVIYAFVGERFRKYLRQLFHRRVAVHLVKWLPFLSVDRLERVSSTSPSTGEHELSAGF
Protocol: as §1, §2

[6] = tracer at 0.1μM, listed as amitriptyline-b-2-NB590
[7] = tracer at 1μM, listed as amitriptyline-b-2-NB590

Structure (SMILES) | NanoBRET Fold Response ([1]; HCRTR2, tracer 0.1μM) | NanoBRET Fold Response ([1]; HCRTR2, tracer 1μM) | NanoBRET Fold Response ([2]; HTR5A, tracer 0.1μM) | NanoBRET Fold Response ([2]; HTR5A, tracer 1μM) | NanoBRET Fold Response ([3]; P2RY2, tracer 0.1μM) | NanoBRET Fold Response ([3]; P2RY2, tracer 1μM) | NanoBRET Fold Response ([4]; F2RL1, tracer 0.1μM) | NanoBRET Fold Response ([4]; F2RL1, tracer 1μM) | NanoBRET Fold Response ([5]; CCR1, tracer 0.1μM) | NanoBRET Fold Response ([5]; CCR1, tracer 1μM) | further results
Cc1nc2n(c(=O)c1CCN1CCC(c3noc4cc(F)ccc34)CC1)CCCC2OC(=O)NCCOCCOCCOCCOCCNC(=O)CCc1ccc2n1[B-](F)(F)[N+]1=C(c3ccc[nH]3)C=CC1=C2 (centres unmarked) [Risperidone-2-NB590] | 0.98 | 0.96 | 1.03 | 1.28 | 1.08 | 0.86 | 1.00 | 0.94 | 1.00 | 0.99 | –
CCOC(=O)c1cc(C#N)c(N2CCC(C(=O)NS(=O)(=O)Cc3ccccc3/C=C/C(=O)NCCNC(=O)CCc3ccc4n3[B-](F)(F)[N+]3=C(c5ccc[nH]5)C=CC3=C4)CC2)nc1C [AZD1283-1-NB590] | – | – | – | – | – | – | – | – | – | – | NanoBRET Fold Response ([1]; HCRTR2, 0.1μM): 1.01; NanoBRET Fold Response ([1]; HCRTR2, 1μM): 1.01; NanoBRET Fold Response ([2]; HTR5A, 0.1μM): 0.97; NanoBRET Fold Response ([2]; HTR5A, 1μM): 1.04; NanoBRET Fold Response ([3]; P2RY2, 0.1μM): 1.08; NanoBRET Fold Response ([3]; P2RY2, 1μM): 1.12; NanoBRET Fold Response ([4]; F2RL1, 0.1μM): 1.06; NanoBRET Fold Response ([4]; F2RL1, 1μM): 1.06; NanoBRET Fold Response ([5]; CCR1, 0.1μM): 1.05; NanoBRET Fold Response ([5]; CCR1, 1μM): 1.03
Cc1cc2c(s1)Nc1ccccc1N=C2N1CCN(CCCNC(=O)CCOCCOCCOCCOCCNC(=O)CCc2ccc3n2[B-](F)(F)[N+]2=C(c4ccc[nH]4)C=CC2=C3)CC1 [Olanzapine-a-2-NB590] | 0.95 | 0.97 | 1.06 | 1.03 | 0.95 | 1.13 | 1.04 | 0.96 | 1.02 | 0.98 | –
COc1ccccc1N1CCN(CCCCN2C(=O)c3ccc(CNC(=O)CCOCCNC(=O)c4ccc(CNC(=O)CCc5ccc6n5[B-](F)(F)[N+]5=C(c7ccc[nH]7)C=CC5=C6)cc4)cc3C2=O)CC1 [NAN-190-3-NB590] | 0.98 | 0.97 | 0.99 | 1.06 | 1.00 | 1.01 | 0.96 | 1.08 | 1.04 | 0.89 | –
CC(C)N(CC[C@H](c1ccccc1)c1cc(CCNC(=O)CCOCCOCCOCCOCCNC(=O)CCc2ccc3n2[B-](F)(F)[N+]2=C(c4ccc[nH]4)C=CC2=C3)ccc1O)C(C)C [Tolterodine-2-NB590] | 1.04 | 1.00 | 1.07 | 1.05 | 1.06 | 1.07 | 1.07 | 1.03 | 0.97 | 0.94 | –
CN(C)CCC=C1c2ccccc2CCc2ccc(C(=O)NCCNC(=O)CCOCCOCCOCCOCCNC(=O)CCc3ccc4n3[B-](F)(F)[N+]3=C(c5ccc[nH]5)C=CC3=C4)cc21 [Amitriptyline-b-2-NB590] | – | – | – | – | – | – | – | – | – | – | NanoBRET Fold Response [1, 6]: 1.00; NanoBRET Fold Response [1, 7]: 0.98; NanoBRET Fold Response [2, 6]: 1.22; NanoBRET Fold Response [2, 7]: 1.26; NanoBRET Fold Response [3, 6]: 1.04; NanoBRET Fold Response [3, 7]: 0.92; NanoBRET Fold Response [4, 6]: 1.10; NanoBRET Fold Response [4, 7]: 1.00; NanoBRET Fold Response [5, 6]: 0.84; NanoBRET Fold Response ([5]; tracer at 1μM): 0.97
O=C(CCOCCOCCOCCOCCNC(=O)CCc1ccc2n1[B-](F)(F)[N+]1=C(c3ccc[nH]3)C=CC1=C2)NCCCN1CCN(C2=Nc3ccccc3Oc3ccc(Cl)cc32)CC1 [Loxapine-a-2-NB590] | 1.13 | 1.16 | 0.97 | 1.32 | 0.99 | 1.05 | 1.12 | 1.14 | 1.00 | 0.99 | –
COc1ccccc1N1CCN(CCCCN2C(=O)c3ccc(CNC(=O)CCOCCOCCOCCOCCNC(=O)CCc4ccc5n4[B-](F)(F)[N+]4=C(c6ccc[nH]6)C=CC4=C5)cc3C2=O)CC1 [NAN-190-2-NB590] | 1.02 | 1.00 | 0.96 | 1.13 | – | – | 0.96 | 0.98 | 1.01 | 1.04 | –
N#CN/C(=N\CCNC(=O)c1ccc(N)cc1)NCCCOc1cccc(CN2CCCCC2)c1 [Aminopotentidine (unmodified)] | – | – | – | – | – | – | – | – | – | – | NanoBRET Fold Response ([2]; HTR5A, other tracers/Aminopotentidine (unmodified), 0.1μM): 1.11; NanoBRET Fold Response ([2]; HTR5A, other tracers/Aminopotentidine (unmodified), 1μM): 1.09
CN(CCC=C1c2ccccc2CCc2ccccc21)C(=O)CCOCCOCCOCCOCCNC(=O)CCc1ccc2n1[B-](F)(F)[N+]1=C(c3ccc[nH]3)C=CC1=C2 [Amitriptyline-e-2-NB590] | – | – | – | – | – | – | – | – | – | – | NanoBRET Fold Response ([2]; tracer at 1μM): 1.05; NanoBRET Fold Response ([3]; tracer at 1μM): 0.98; NanoBRET Fold Response ([5]; tracer at 1μM): 0.99
